This is an account of results in article PMC9032663, “α-Glucosidase Inhibitory and Antimicrobial Benzoylphloroglucinols from Garcinia schomburgakiana Fruits: In Vitro and In Silico Studies” (Molecules, 2022).

Converted amounts (≈) assume the structure as drawn. Where two headings read alike, the source gives them in different places.

The target of one data set is α-glucosidase. Description: α-glucosidase inhibition assay. As to conditions: in vitro; read-out: α-glucosidase inhibitory activity IC50. Type of data set: biochemical, yeast. How it is done: The enzymatic reaction was carried out at 37 °C for 20 min and stopped by adding 0.2 M Na2CO3 (130 μL). Enzymatic activity was quantified by measuring absorbance at 405 nm. All samples were analyzed in triplicate at five different concentrations around the IC50 values, and the mean values were retained.

The test system of a further data set is Acinetobacter baumannii. The data set is described as follows: agar well diffusion antibacterial assay. It is filed as cell-based. As to conditions: A. baumannii, at the tested concentration. The procedure:
(§1) The agar well diffusion method was used to evaluate the antibacterial activity of the isolated compounds on antibiotic-resistant, pathogenic bacteria Staphylococcus aureus, Enterococcus faecium, and Acinetobacter baumannii. Three bacterial pathogens were cultured in nutrient broth at 37 °C for 18 h. The cultures were diluted with sterile 0.9% NaCl to obtain bacterial solutions of 1.5 × 10^8 CFU/mL. This solution with a volume of 100 μL was spread on a Mueller–Hinton agar plate. Holes with a diameter of 8 mm were punched aseptically to create wells on the surface of the Mueller–Hinton agar. The compounds were dissolved in DMSO. The amount of 50 µg of each compound solution was inserted into the wells. The plates were incubated at 37 °C for 16–18 h, and the antibacterial activity of each compound was recorded by measuring the diameters of the inhibition zones surrounding the wells. DMSO was used as a control. […] Kanamycin was used as the positive control in this experiment.

For a further data set, the system named is Enterococcus faecium. Description: agar well diffusion antibacterial assay. Type of data set: cell-based. The note with it: E. faecium, concentration of 50 µg/mL. The procedure: as §1
On the technique in general: Agar diffusion results depend on both activity and mobility in agar.

The test system of another data set is Staphylococcus aureus. Description: agar well diffusion antibacterial assay. It is filed as cell-based. The note with it: S. aureus, concentration of 50 µg/mL. How it is done: as §1
Data set [1] relates to S. aureus. Description: MIC determination. It is filed as cell-based, Staphylococcus aureus.
Another data set is described as follows: cytotoxicity assay. It is filed as cell-based. The note with it: human, HEK293 cells (normal cell line). The text has this:
The cytotoxic evaluation of compound 1 against the HEK293 normal cell line was applied from a previous procedure.

The subject of data set [2] is S. aureus. Also noted: method as in PMID 27458464. The note with it: cited from earlier work.

As for `CC(C)=CCCC1(C)C(CC=C(C)C)CC23CCC(C)(C)OC2=C(C(=O)c2ccc(O)c(O)c2)C(=O)C1(CC=C(C)C)C3=O` (centres unmarked) [Compound 1, schomburgkianone I], the IC50 on α-glucosidase came out at 21.2 µM; in the data set “cytotoxicity assay”, 87 µM. In addition, in the data set with Acinetobacter baumannii, the antimicrobial activity entry was “failed to show any activity”. Besides, the figures for the zone of inhibition at 50 µg/mL with Enterococcus faecium and with Staphylococcus aureus were 20 mm and 21 mm, respectively. In the data set on S. aureus [1] (Staphylococcus aureus), this compound returned an MIC of 13.3 µM (≈ 8.03 µg/mL).
In the data set with S. aureus [1], `NC[C@H]1O[C@H](O[C@H]2[C@H](O)[C@@H](O[C@H]3O[C@H](CO)[C@@H](O)[C@H](N)[C@H]3O)[C@H](N)C[C@@H]2N)[C@H](O)[C@@H](O)[C@@H]1O` [kanamycin, reference compound] had an MIC of 8.26 µM (≈ 4 µg/mL).
Guttiferone BL: the “activity against S. aureus” value in the data set on S. aureus [2] is “low activity”.

As a reminder, the IC50 is the midpoint of a concentration-inhibition curve. As usually defined, the zone of inhibition is the size of the clear area around the sample on an inoculated plate. The low end stands for a weaker effect on the plate, the high end for a stronger effect on the plate. As a reminder, the MIC is the lowest concentration that inhibits growth of the organism. Low readings indicate inhibition by little substance, high ones a need for much substance.
